Calls of active or inactive are those of the source. The calls are words filed in the database; no cut-off is given here.
Key:
SKM-1 [1] = test: In vivo antitumor activity against human SKM-1 cells xenografted BALB/c mouse model assessed as tumor growth inhibition at 40 mg/kg, po relative to control; type: functional; details: read-out: TGI
[2] = Metabolic stability in human hepatocyte assessed as UV peak area at wave length 254 nm measured immediately after compound addition by LC-MS/MS analysis; type: ADME, cell-based; details: hepatocytes
[3] = Metabolic stability in human hepatocyte assessed as UV peak area at wave length 254 nm measured incubated for 120 mins by LC-MS/MS analysis; type: ADME, cell-based; details: hepatocytes, 2 h
[4] = Half life in Sprague-Dawley rat at 10 mg/kg, iv measured upto 24 hrs by LC-MS analysis; type: ADME, organism-based; details: in vivo
[5] = Metabolic stability in rat hepatocyte assessed as mass spectrum peak area by measuring metabolite M2 measured incubated for 120 mins by LC-MS/MS analysis; type: ADME, cell-based; details: hepatocytes, 2 h
SKM-1 [6] = test: Downregulation of CDK4 expression in human SKM-1 cells at 0.1 uM by Western blotting analysis; type: functional, cell-based

Activity [2]: 293
Activity [3]: 299
half-life [4]: 1.5 h
Activity [5]: 1030
SMILES: C[C@@H](c1ccc(C(=O)Nc2ccc(F)cc2N)cc1)n1nc(-c2ccc(CN(C)C)cc2)ccc1=O
inhibition in vivo at 40 mg/kg (SKM-1 [1]): 21.6%
Activity (SKM-1 [6]): Active

— ChEMBL document CHEMBL5338780, “Discovery of (S)-N-(2-Amino-4-fluorophenyl)-4-(1-(3-(4-((dimethylamino)methyl)phenyl)-6-oxopyridazin-1(6H)-yl)ethyl)benzamide as Potent Class I Selective HDAC Inhibitor for Oral Anticancer Drug Candidate” (J Med Chem, 2023)
